Tested on: 494315-158-R-J1-PDC complex spheroid growth, percent test/control
Assay: Anticancer human tumor 494315-158-R-J1-PDC patient-derived soft tissue sarcoma cell line growth inhibition [Asc]
Conditions: for IC50: curve of first compound; for viability, T/C: stronger effect = lower value
Method: Multicellular complex tumor spheroid response to apoptosis pathway targeting inhibitors Alrizomadlin, Pelcitoclax, and Dasminapant in combination with a variety of drugs and investigational agents in selected tumor cell lines
The MDM2 inhibitor alrizomadlin, the Bcl-2/Bcl-xL inhibitor pelcitoclax, and the IAPs inhibitor dasminapant were evaluated both individually and in combination with standard of care and investigational anticancer small molecules within a complex spheroid model of solid tumors. . Complex spheroids include a stromal component modeled by human endothelial cells (HUVEC) and fibroblasts modeled by human mesenchymal stem cells (MSCs). The concentration ranges selected for each drug and investigational agent were based upon clinically achievable concentrations if the clinical Cmax of the agent was known.
Compounds. The drugs and investigational agents: alrizomadlin (APG-115; NSC831270), pelcitoclax (APG-1252; NSC835773), dasminapant (APG-1387;NSC834197), TAK-243 (NSC785004), copanlisib (NSC809693), olaparib (NSC753686), talazoparib (NSC767125), cobimetinib (NSC 768068), eltanexor (KPT-8602, NSC 794443), abemaciclib (NSC 768073), sotorasib (NSC818433), adagrasib (NSC 831453), MRTX-1133 (NSC 836407), Iadademestat (ORY1001, NSC 806812), and RMC-4630 (NSC839698), were obtained from the NCI Developmental Therapeutics Program Chemical Repository. The FDA-approved anticancer drug set is available from the Developmental Therapeutics Program at https://dtp.cancer.gov/organization/dscb/obtaining/available plates.htm. […] The stock solutions were prepared in dimethyl sulfoxide (DMSO, Sigma-Aldrich, St. Louis, MO, cat. D2650) at 800-fold the tested concentration and stored at -70 degrees C prior to their use. All drugs and investigational agents were tested over a range starting from a high concentration at or near the clinical Cmax and decreasing in half-log increments. If the clinical Cmax for an agent had not been determined, the highest concentration tested was 10 microM.
The patient-derived cancer (PDC) cell lines include five colon adenocarcinomas: 186277-243-T-J2-PDC, 616215-338-R-J1-PDC, 439559-082-T-J2-PDC, 463943-066-T-J2-PDC, and 519858-162-T-J1-PDC; three pancreatic carcinomas: 323965-272-R-J2-PDC, 521955-158-R6-J3-PDC, and 521955-158-R2-J5-PDC; two uterine sarcomas: 327498-152-R-J2-PDC and 993429-296-R-J1-PDC; two rhabdomyosarcomas: 755483-174-R-J1-PDC and 772245-204-R-J1-PDC; two soft tissue sarcomas: 126254-015-R-J1-PDC and 494315-158-R-J1-PDC; two malignant fibrous histiocytomas: 317291-083-R-J1-PDC and 596521-263-R-J1-PDC; two breast carcinomas: 171881-019-R-J1-PDC and 885512-296-R-J2-PDC; and one ovarian carcinoma: 6556581-035-R-J-PDC were obtained from the NCI PDMR, (https://pdmr.cancer.gov). The established cell lines HSSY-2 synovial sarcoma (RRID:CVCL 8719), SYO-1 synovial sarcoma (RRID:CVCL_7146), MPNST malignant peripheral neural sheath tumor were obtained from the Sloan Kettering Institute. The following established cell lines were purchased from the American Type Culture Collection (ATCC, Manassas, VA), Sor the received from the NCI repository:, PANC-1 pancreatic carcinoma (CRL-1469, RRID:CVCL_0480), OVCAR-5 ovarian carcinoma (RRID:CVCL_1628), OVCAR-8 ovarian carcinoma (RRID:CVCL_1629), , MCF-7 breast carcinoma (CRL-12584, RRID:CVCL_0031), MDA-MB-231 breast carcinoma (CRL-12532, RRID:CVCL_0062), NCI-H1876 small cell lung carcinoma (CRL-5902, RRID:CVCL_1503), NCI-H510A small cell lung carcinoma (HTB-184, RRID:CVCL_1565), NCI-H1417 (CRL-5869, RRID:CVCL_1469), and NCI-H196 small cell lung carcinoma (CRL-5823, RRID:CVCL_1509). Dr. Peter Houghton (Greehey Children's Cancer Research Institute, University of Texas Health Science Center, San Antonio, TX) provided Rh-18 rhabdomyosarcoma (RRID:CVCL_1659). Pooled donor human umbilical vein endothelial cells (HUVEC, Lonza, cat. CC-2519) and human mesenchymal stem cells (hMSC, Lonza, cat. PT-2501) were purchased from Lonza (Walkersville, MD).
Cell Culture. […]
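Note: compound exposure lasted seven days after spheroids formed for three days.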

O=C(c1cc(Cc2n[nH]c(=O)c3ccccc23)ccc1F)N1CCN(C(=O)C2CC2)CC1 + CCN1C(C(=O)NC23CCC(C(=O)O)(CC2)CC3)C(c2cccc(Cl)c2F)C2(C(=O)Nc3cc(Cl)ccc32)C12CCCCC2
IC50 (second compound 0.03 µM): > 10 µM
IC50 (second compound 0.0949 µM): > 10 µM
IC50 (second compound 0.3 µM): > 10 µM
IC50 (second compound 0.949 µM): > 10 µM
IC50 (second compound 3 µM): > 10 µM
viability, T/C (second compound 0.03 µM, first compound 0.0316 µM): 97.3%
viability, T/C (second compound 0.03 µM, first compound 0.1 µM): 109%
viability, T/C (second compound 0.03 µM, first compound 0.316 µM): 94%
viability, T/C (second compound 0.03 µM, first compound 1 µM): 94.6%
viability, T/C (second compound 0.03 µM, first compound 3.16 µM): 80.4%
viability, T/C (second compound 0.03 µM, first compound 10 µM): 51.2%
viability, T/C (second compound 0.0949 µM, first compound 0.0316 µM): 107%
viability, T/C (second compound 0.0949 µM, first compound 0.1 µM): 107%
viability, T/C (second compound 0.0949 µM, first compound 0.316 µM): 96.8%
viability, T/C (second compound 0.0949 µM, first compound 1 µM): 93.8%
viability, T/C (second compound 0.0949 µM, first compound 3.16 µM): 74.3%
viability, T/C (second compound 0.0949 µM, first compound 10 µM): 50.4%
viability, T/C (second compound 0.3 µM, first compound 0.0316 µM): 97.6%
viability, T/C (second compound 0.3 µM, first compound 0.1 µM): 103%
viability, T/C (second compound 0.3 µM, first compound 0.316 µM): 95.2%
viability, T/C (second compound 0.3 µM, first compound 1 µM): 79.1%
viability, T/C (second compound 0.3 µM, first compound 3.16 µM): 74.5%
viability, T/C (second compound 0.3 µM, first compound 10 µM): 53%
viability, T/C (second compound 0.949 µM, first compound 0.0316 µM): 109%
viability, T/C (second compound 0.949 µM, first compound 0.1 µM): 90.2%
viability, T/C (second compound 0.949 µM, first compound 0.316 µM): 92.5%
viability, T/C (second compound 0.949 µM, first compound 1 µM): 95.9%
viability, T/C (second compound 0.949 µM, first compound 3.16 µM): 73.9%
viability, T/C (second compound 0.949 µM, first compound 10 µM): 52%
viability, T/C (second compound 3 µM, first compound 0.0316 µM): 90.3%
viability, T/C (second compound 3 µM, first compound 0.1 µM): 83.9%
viability, T/C (second compound 3 µM, first compound 0.316 µM): 85%
viability, T/C (second compound 3 µM, first compound 1 µM): 91.9%
viability, T/C (second compound 3 µM, first compound 3.16 µM): 81.9%
viability, T/C (second compound 3 µM, first compound 10 µM): 51%
